Assay results reported in patent publication US20110098332A1, “Insecticides for Increasing the Crop Yield” (BASF SE, priority 2007, published 2011).

Tests used:
[1] = system: Winter wheat (cultivar Türkis); experiment: Crop yield in winter wheat after seed treatment (field trial); format: in vivo; conditions: seed treatment 50 ml/100 kg seeds (Regent FS 500, 25 g per 100 kg seeds), harvest 269 days after planting
From the text: (§1) The N-min analysis method used in the examples determines the content of mineral nitrogen compounds in the soil (0-90 cm depth) at the beginning of the vegetative period. For this purpose, samples are taken in a depth of 0 to 90 cm and mineral nitrogen compounds (ammonium compounds and nitrates) are extracted and analyzed. The method is described in R. Thun et al., “Die Untersuchung von Böden, Methodenbuch Bd. 1, 4th edition 1991, edition VDLUFA (Verband Deutscher Landwirtschaftlicher Untersuchungs- and Forschungsanstalten), Darmstadt, Germany.
Winter wheat seeds (cultivar Türkis) were treated with fipronil (used as commercially available product Regent FS 500; an FS formulation containing 500 g/l of active ccompound; 25 g per 100 kg seeds) in a HEGE 11 seed treatment apparatus. A part of the seeds remained untreated (control). Two days after the treatment, the seeds were planted in Böhl, Palatine, Germany, in a loamy sand with a pH of 6.7, and a tilling depth of 30 cm. Nitrogen content following N-min analysis was 26 kg N per ha in 0 to 90 cm depth. 400 seeds per m^2 were sown in 1.86 m by 5.5 m plots. Row spacing was 13 cm and seeding depth 3 cm. The treatments were supplied with either standard amount of nitrogen (180 kg N/ha) or reduced amount of nitrogen (50 kg N/ha). 269 days after planting, the wheat grains were harvested and weighed.

[2] = system: Spring wheat (cultivar Triso); experiment: Crop yield increase in spring wheat after seed treatment (field trial); format: in vivo; conditions: seed treatment 100 ml/100 kg seeds (Regent FS 500, 50 g per 100 kg seeds), harvest 130 days after planting
From the text: as §1
Spring wheat seeds (cultivar Triso) were treated with fipronil (used as commercially available product Regent FS 500; an FS formulation containing 500 g/l of active compound; 50 g per 100 kg seeds) in a HEGE 11 seed treatment apparatus. A part of the seeds remained untreated (control). Five days after the treatment, the seeds were planted near Gommersheim, Palatine, Germany, in a loamy sand with a pH of 6.7, and a tilling depth of 30 cm. Nitrogen content following N-min analysis was 52 kg N per ha in 0 to 90 cm depth. 400 seeds per m^2 were sown in 1.86 m by 5.5 m plots. Row spacing was 13 cm and seeding depth 3 cm. The treatments were supplied with either standard amount of nitrogen (140 kg N/ha) or reduced amount of nitrogen (30 kg N/ha). 130 days after planting, the wheat grains were harvested and weighed.

N#Cc1nn(-c2c(Cl)cc(C(F)(F)F)cc2Cl)c(N)c1[S+]([O-])C(F)(F)F (stereo not shown) [fipronil]
Crop yield ([1]; reduced nitrogen (50 kg N/ha), control 82.6): 86.1 dt/ha | Crop yield ([1]; standard nitrogen (180 kg N/ha), control 87.4): 87.4 dt/ha | Crop yield ([2]; reduced nitrogen (30 kg N/ha), control 47.0): 51.4 dt/ha | Crop yield ([2]; standard nitrogen (140 kg N/ha), control 62.8): 63.2 dt/ha
